Data on 63 molecules can be found in a melting point compilation (Tetko et al.; mined from patent text by program, amines drawn as free bases though some values may be those of a salt).

Structures are written as SMILES.

In general, melting point refers to the temperature, or range, at which the solid turns liquid. With `CCC(CC(=O)NC(=O)OC(C)(C)C)Nc1ccccc1` (stereo not drawn), the melting point was in the range of 105 to 106 °C. The figure for `Nc1cc(S(=O)(=O)C(F)(F)F)cc(Cl)c1N` is 143 to 145 °C.

With `CS(=O)(=O)c1ccc(OCC2CCN(CC3CC3)CC2)cc1`, the melting point was 134 to 135 °C. The figure for `CC1CC(=O)c2cc(O)cnc2C1` (stereo not drawn) is 210 to 212 °C; for `O=C1N(c2ccc(Cl)cc2Cl)Cc2cnc(Nc3ccccc3)nc2N1c1cccc(CCN2CCNCC2)c1` it is 126 °C; for `Cc1nc2sccn2c1-c1ccc(C#N)cc1` it is 88 to 91 °C.

Regarding `O=C(NN=C1c2ccc(F)cc2CC1(O)c1ccc(F)cc1)Nc1ccc(Br)cc1` (stereo not drawn), the melting point was 235 to 237 °C. The figure for `CC(C)(C)CC(=O)NCc1cccs1` is 83 to 84 °C; for `Cc1nnc2n1-c1ccccc1C(c1ccc(Cl)cc1)=NC2NN(C(=O)NN)C(=O)c1ccccc1` (stereo not drawn) it is 243 to 245 °C. The figure for `CC1c2cc([Si](C)(C)C)ccc2-c2ccc([Si](C)(C)C)cc21` is 107 to 108 °C. The molecule `COC(=O)c1ccc2nc(C)n(Cc3ccc(C=C4SC(=O)NC4=O)cc3Cl)c2n1` registered a melting point of over 300 °C. On to `CCC12CCC(=O)C=C1c1c(cc(OC(C)C(=O)OC3COC(C)(C)O3)c(Cl)c1Cl)C2` (stereo not drawn), for which the melting point lay in the range of 143 to 145 °C. Regarding `Cc1cccc(C)c1O[C@@H]1CCNC[C@H]1O` (relative stereo), the melting point was in the range of 131 to 133 °C. The figure for `CC(=O)SCC(CC(C)C)C(=O)NC(C)C(=O)O` (stereo not drawn) is 157 to 167 °C; for `CCCCCCCCCCCCCCCCCC(=O)N1C(CCCCCCCCCCCCCCCCC)NC(=O)CC1C(=O)O` (stereo not drawn) it is 107 to 111 °C; for `CCOC(=O)Cc1ccc2c(c1)sc1ccc(C)cc12` it is 45 to 48 °C.

`CC(N)=CC(=O)c1ccc(Cl)cc1` had a melting point of 126 to 130 °C. With `C[C@@H](S[C@H]1CC[C@H](/C=C/C=C/c2ccc(C(F)(F)F)cc2)CC1)[C@](O)(Cn1cncn1)c1ccc(F)cc1F` the figure was 74 to 76 °C. On to `Cc1cc(Cl)nc2nc(N3C(=O)c4ccccc4C3CC(=O)N3CCC4(CC3)OCCO4)ccc12` (stereo not drawn), for which the melting point fell in the range of 259 to 262 °C. With `COc1ccc(Nc2ccnc3nc(C)c(O)cc23)cc1` the figure was 169 to 174 °C; with `COc1cn([C@H](C)c2cccc3ccccc23)c(=O)o1`, 89 to 91 °C; with `C#CCOc1cc(-c2ccccc2)ncn1`, 65.1 °C. The figure for `CN1CCN(C(=O)c2ccccc2)C1=C(Sc1ccccc1)[N+](=O)[O-]` is 175 to 178 °C.

`COC(=O)CC1NC(=O)C(Cc2ccccc2)NC1=O` (stereo not drawn): the melting point was in the range of 217 to 218 °C.

In turn, `COCCOc1cc2ncnc(Nc3ccc(C)c(OC(C)=O)c3)c2cc1OC` displayed a melting point of 180 to 183 °C.

Turning to `C=C(Nc1nc(-c2ccccc2)c(-c2nc3ccccc3c(=O)n2-c2ccc(C(C)=O)cc2)s1)c1ccco1`, the melting point was 232 to 233 °C. The figure for `CCC1(CCCCN2CCN(c3ccc(C)c(Cl)c3)CC2)C(=O)Nc2ccccc21` (stereo not drawn) is 103 to 106 °C; for `O=C(CC(F)(F)F)NC[C@H]1CN(c2ccc3c(c2)CCCc2cnoc2-3)C(=O)O1` it is 150 to 186 °C; for `CN1CCC(O)(c2cccn2Cc2ccccc2F)CC1` it is 164 to 165 °C. The figure for `Ic1cccc(-c2nnc(-c3ccc4ccccc4c3)o2)c1` is 156 to 158 °C; for `C=C1CC(COc2cccc3ccc(C)nc23)(c2ccc(Cl)cc2)OC1=O` (stereo not drawn) it is 129 to 130 °C. `CC(C)n1nc(-c2c(OCCF)nc(N)nc2-c2ccccc2)ccc1=O` returned a melting point of 129 to 130 °C. The molecule `O=C(O)c1cc(OCC(F)(F)F)ccc1OCC(F)(F)F` had a melting point of 99 to 101 °C. With `COC(=O)C(=O)c1cc2cc(C#N)ccc2o1` the figure was 196 to 199 °C.

In turn, `CC(=O)Nc1c(C(=O)c2occc2CO)[nH]c2cc(Cl)ccc12` returned a melting point of 196 to 198 °C. With `CC1COc2c(Br)c(F)cc3c(=O)c(C(=O)O)cn1c23` (stereo not drawn) the figure was over 250 °C; with `O=C1C2=C(CCCC2)C(Sc2ccccc2)N1c1ccc(Cl)cc1F` (stereo not drawn), 86 to 87 °C; with `Cc1ccc(C(c2ccccc2)C(O)CN(C)C)cc1` (stereo not drawn), 55 to 58 °C. The figure for `COc1ccc(-c2cc(-c3ccc(O)c(F)c3)nc3c(Cl)cc(O)cc23)cc1` is 140 to 142 °C.

In turn, `Nc1nc2ccc(S(=O)(=O)n3c(CCCC(=O)O)cc4cc(Cl)ccc43)cc2s1` displayed a melting point of 155 to 162 °C. Consider `CCCc1c(OCCCOc2ccc(C(=O)OCC)cc2Cl)ccc(C(C)=O)c1O`, for which the melting point lay within 101 to 102 °C. As for `Nc1ccccc1Cc1nc[nH]n1`, the melting point fell in the range of 134 to 136 °C. The figure for `OC(CNc1ccnc2cc(Cl)ccc12)c1ccccc1` (stereo not drawn) is 221 to 222 °C; for `CCN(CC)C(=O)Nc1ccc(NCc2ccccc2Cl)cc1N` it is 153 to 155 °C; for `Cn1nnnc1C(C=O)=C(c1ccccc1)c1ccccc1` it is 185 to 186 °C. `CCOC(=O)C1=C(C)NC(C)=C(C(=O)OC(C)C)C1c1cccc2ccccc12` (stereo not drawn) came in with a melting point of 167 °C. `COC1=C(c2ccccc2)C(CCCC(=O)O)OC1=O` (stereo not drawn): the melting point fell in the range of 94 to 96 °C. The figure for `O=C1NC(=O)C(Cc2ccc(OCC3CN(c4ccccn4)CCO3)cc2)S1` (stereo not drawn) is 139 to 142 °C; for `COC(=O)CS(=O)Cc1cccc(-c2nc(=O)c3ccccc3s2)n1` (stereo not drawn) it is 150 to 151 °C; for `CC(=O)OCC(O)(CN(C)S(=O)(=O)c1ccc(Cl)c(C)c1)c1cccc(Cl)n1` (stereo not drawn) it is 92 to 93 °C. The figure for `O=C1Nc2ccc(Cl)cc2C12OCCCO2` is 184 to 185 °C. With `COCCN(CCOC)c1ccccc1NC(N)=S` the figure was 118 to 119 °C; with `CCCc1c(C#N)c2ccc(C(=O)OC)cc2n1Cc1ccccc1Cl`, 132 to 133 °C; with `CCCc1nn(C)c2c(=O)n(CCOc3ccc(NC(C)C(=O)OCC)cc3)c(CC)nc12` (stereo not drawn), 100 to 104 °C. `COc1cc(COc2nn(-c3ccccc3)cc2/C=C/C(=O)N2CCOCC2)ccc1OCc1nc(-c2ccco2)oc1C` registered a melting point of 180 to 181 °C. The figure for `Clc1ccc2[nH]c3c(Cl)nc4ccccc4c3c2c1` is 250 °C; for `COCN1C(C)=C(C(=O)OCc2ccccc2)C(c2cccc(Cl)c2Cl)C(C(=O)OCc2ccccc2)=C1C` it is 116 to 117 °C; for `C#Cc1ncn2c(C(F)F)cc(-c3ccc(C(F)(F)F)cc3)nc12` it is 135 °C. The figure for `CCc1oc2ccccc2c1C(=O)c1ccc(OCCOS(=O)(=O)c2ccc(C)cc2)cc1` is 95 to 98 °C.

`CC(=O)NC[C@H]1CN(c2cc(F)c(N3CCC(Cc4noc(-c5ccccc5)n4)CC3)c(F)c2)C(=O)O1` came in with a melting point of 152 to 154 °C.

Molecule `CCOc1ccc(NC(=O)c2cn(CC)c3c2C(=O)CCC3)cc1` showed a melting point of 209 to 210 °C. The figure for `O=C(Cc1cccc2ccccc12)Nc1cc([C@H]2C[C@@H](NC(=O)c3cccc(C(F)(F)F)c3)C2)[nH]n1` is 143 °C; for `CS(=O)(=O)c1ccc(-c2cc(Cl)c(Cl)cc2-c2ccc(F)cc2)cc1` it is 144 °C.
